Experimental data: patent US4599424A, “5-substituted thiadiazole ureas and their use as herbicides” (priority 1979, dated 1986)

System: a variety of crops and weed species
Assay: Pre- and post-emergence herbicide tests, overall assessment of TABLES III-VI
Assay type: in vivo
Details: from data of TABLES III-VI
Method: All crop and weed species were planted individually in 3" plastic pots containing potting soil. Four seeds each of corn, cotton, and snapbeans were seeded to a depth equal to the diameter of the seed. All other species were surface seeded and sprinkled with screened soil in an amount sufficient to cover the seed. Immediately after planting, all pots were watered by sub-irrigation in greenhouse trays. Pots for the pre-emergence phase were seeded one day before treatment.
Planting dates for the post-emergence phase were varied so that all seedlings would reach the desired stage of development simultaneously. The proper stage of seedling development for treatment in the post-emergence phase is as follows:
Compounds were tested at rates of application equivalent to 8 lbs. of actual compound per acre in a spray volume of 38 gallons per acre. Spray hood constants required to deliver the above volume are as follows:
Two weeks after treatment, pre- and post-emergence injury or control was visually rated, and the results were as shown in the following tables. Pre-emergence data are provided in TABLE III and post-emergence data are provided in TABLE IV, for compounds having the formula illustrated in TABLE I. Correspondingly, pre-emergence and post-emergence data, respectively, are set forth in TABLES V AND VI, for compounds having the formula illustrated in TABLE II.
Typical of such compounds are: 1, 2, 5, 26, 36, and 37.

Structure (SMILES)	herbicidal effectiveness and selectivity (in words)
CNC(=O)Nc1nnc(C(F)(F)F)s1 [Example 1, 1-Methyl-3-[5-Trifluoromethyl-2-(1,3,4-Thiadiazolyl)]Urea]	extremely effective
CN(C)C(=O)Nc1nnc(C(F)(F)F)s1 [Example 2, 1,1-Dimethyl-3-[5-Trifluoromethyl-2-(1,3,4-Thiadiazolyl)]Urea]	extremely effective
CSc1nnc(N(C)C(=O)N(C)C)s1 [Example 5, 1,1,3-trimethyl-3-[5-methylthio-2-(1,3,4-thiadiazolyl)]urea]	extremely effective
CCNC(=O)Nc1nnc(C(F)(F)F)s1 [Example 9]	more selective
C=CCNC(=O)Nc1nnc(C(F)(F)F)s1 [Example 12]	control post-emergence growth, while have little effect in regard to pre-emergence
O=C(Nc1ccc(Cl)cc1)Nc1nnc(C(F)(F)F)s1 [Example 15]	more selective
O=C(Nc1ccc(Cl)c(Cl)c1)Nc1nnc(C(F)(F)F)s1 [Example 16]	more selective
Cc1nnc(NC(=O)N(C)C)s1 [Example 19]	converse of this relationship
CCc1nnc(NC(=O)N(C)C)s1 [Example 20]	more selective
